# In US20110295343A1, “NEAR-INFRARED ELECTROMAGNETIC MODIFICATION OF CELLULAR STEADY-STATE MEMBRANE POTENTIALS” (priority 2008, published 2011):
# Several values for one entry are separate records, joined by “and”; a condition that tells them apart may be missing. Identical values can stand only once.
# System: MRSA (ATCC BAA-43)
# Test: MRSA/antimicrobial potentiation, CFU on TSB agar with and without antibiotic after laser (Example XXII, Experiments 1-4)
# Assay type: cell-based, Staphylococcus aureus subsp. aureus
# Conditions: for CFU/ml / AVG / CFU: agar with 30 μg/ml methicillin; for AVG: mean of plates; for CFU: replicate plates; for Meth Effect: CFU with methicillin / without; for Laser Effect (+Meth) / Laser Effect (+M): both on 30 μg/ml methicillin
# Method: Four separate experiments have been performed.
# Eight different laser dosages were used to treat a saline-suspension of logarithmically growing MRSA, labeled A1 to H1.
# The treated and a control untreated suspension were diluted and plated in triplicate on trypic soy agar with or without 30 μg/ml methicillin After 24 hrs of growth at 37° C. colonies were counted.
# CFU (colony forming units) were compared between the plates with and without methicillin for both control (untreated) and treated MRSA.
# The treated and a control untreated suspension were diluted and plated in triplicate on trypic soy agar with or without 30 μg/mlmethicillin.
# After 24 hrs of growth at 37° C. colonies were counted.
# The treated and a control untreated suspension were diluted and plated in pentuplicate on trypic soy agar with or without 30 μg/ml methicillin.
smiles,measurement,setting,value
COc1cccc(OC)c1C(=O)N[C@@H]1C(=O)N2[C@@H]1SC(C)(C)[C@@H]2C(=O)O [Methicillin],CFU/ml,Exp#2 C2 Cont (no laser),1.66E+08 CFU/ml
same,AVG,Exp#2 C2 Cont (no laser),55.3 CFU
same,CFU,Exp#2 C2 Cont (no laser),42 CFU and 71 CFU and 53 CFU
same,Meth Effect,Exp#2 C2 Exp (laser treated),0.31
same,CFU/ml,Exp#2 C2 Exp (laser treated),3.80E+07 CFU/ml
same,AVG,Exp#2 C2 Exp (laser treated),12.7 CFU
same,CFU,Exp#2 C2 Exp (laser treated),16 CFU and 12 CFU and 10 CFU
same,Laser Effect (+Meth),"Exp#2 D2, laser Exp / Cont",0.04
same,Meth Effect,Exp#2 D2 Cont (no laser),0.61
same,CFU/ml,Exp#2 D2 Cont (no laser),1.56E+08 CFU/ml
same,AVG,Exp#2 D2 Cont (no laser),52 CFU
same,CFU,Exp#2 D2 Cont (no laser),20 CFU and 65 CFU and 71 CFU
same,Meth Effect,Exp#2 D2 Exp (laser treated),0.25
same,CFU/ml,Exp#2 D2 Exp (laser treated),7.00E+06 CFU/ml
same,AVG,Exp#2 D2 Exp (laser treated),2.3 CFU
same,CFU,Exp#2 D2 Exp (laser treated),5 CFU and 1 CFU (2×)
same,Laser Effect (+Meth),"Exp#2 E2, laser Exp / Cont",0.04
same,Meth Effect,Exp#2 E2 Cont (no laser),1.04
same,CFU/ml,Exp#2 E2 Cont (no laser),1.87E+08 CFU/ml
same,AVG,Exp#2 E2 Cont (no laser),62.3 CFU
same,CFU,Exp#2 E2 Cont (no laser),68 CFU and 66 CFU and 53 CFU
same,Meth Effect,Exp#2 E2 Exp (laser treated),0.24
same,CFU/ml,Exp#2 E2 Exp (laser treated),8.00E+06 CFU/ml
same,AVG,Exp#2 E2 Exp (laser treated),2.7 CFU
same,CFU,Exp#2 E2 Exp (laser treated),2 CFU (2×) and 4 CFU
same,Laser Effect (+Meth),"Exp#2 F2, laser Exp / Cont",0.22
same,Meth Effect,Exp#2 F2 Cont (no laser),0.81
same,CFU/ml,Exp#2 F2 Cont (no laser),2.13E+08 CFU/ml
same,AVG,Exp#2 F2 Cont (no laser),71 CFU
same,CFU,Exp#2 F2 Cont (no laser),62 CFU and 64 CFU and 87 CFU
same,Meth Effect,Exp#2 F2 Exp (laser treated),0.38
same,CFU/ml,Exp#2 F2 Exp (laser treated),4.70E+07 CFU/ml
same,AVG,Exp#2 F2 Exp (laser treated),15.7 CFU
same,CFU,Exp#2 F2 Exp (laser treated),13 CFU and 15 CFU and 19 CFU
same,Laser Effect (+Meth),"Exp#2 G2, laser Exp / Cont",0.1
same,Meth Effect,Exp#2 G2 Cont (no laser),1.04
same,CFU/ml,Exp#2 G2 Cont (no laser),2.50E+08 CFU/ml
same,AVG,Exp#2 G2 Cont (no laser),83.3 CFU
same,CFU,Exp#2 G2 Cont (no laser),75 CFU and 92 CFU and 83 CFU
same,Meth Effect,Exp#2 G2 Exp (laser treated),0.3
same,CFU/ml,Exp#2 G2 Exp (laser treated),2.50E+07 CFU/ml
same,AVG,Exp#2 G2 Exp (laser treated),8.3 CFU
same,CFU,Exp#2 G2 Exp (laser treated),10 CFU and 7 CFU and 8 CFU
same,Laser Effect (+Meth),"Exp#2 H2, laser Exp / Cont",0.17
same,Meth Effect,Exp#2 H2 Cont (no laser),0.73
same,CFU/ml,Exp#2 H2 Cont (no laser),2.30E+08 CFU/ml
same,AVG,Exp#2 H2 Cont (no laser),76.7 CFU
same,CFU,Exp#2 H2 Cont (no laser),76 CFU and 72 CFU and 82 CFU
same,Meth Effect,Exp#2 H2 Exp (laser treated),0.45
same,CFU/ml,Exp#2 H2 Exp (laser treated),3.80E+07 CFU/ml
same,AVG,Exp#2 H2 Exp (laser treated),12.7 CFU
same,CFU,Exp#2 H2 Exp (laser treated),13 CFU (2×) and 12 CFU
same,Laser Effect (+M),"Exp#3 A3, laser Exp / Cont",0.33
same,Meth Effect,Exp#3 A3 Cont (no laser),1.03
same,CFU/ml,Exp#3 A3 Cont (no laser),1.45E+08 CFU/ml
same,AVG,Exp#3 A3 Cont (no laser),48.4 CFU
same,Meth Effect,Exp#3 A3 Exp (laser treated),0.52
same,CFU/ml,Exp#3 A3 Exp (laser treated),4.86E+07 CFU/ml
same,AVG,Exp#3 A3 Exp (laser treated),16.2 CFU
same,Laser Effect (+M),"Exp#3 B3, laser Exp / Cont",0.27
same,Meth Effect,Exp#3 B3 Cont (no laser),0.99
same,CFU/ml,Exp#3 B3 Cont (no laser),2.14E+08 CFU/ml
same,AVG,Exp#3 B3 Cont (no laser),71.4 CFU
same,Meth Effect,Exp#3 B3 Exp (laser treated),0.61
same,CFU/ml,Exp#3 B3 Exp (laser treated),5.70E+07 CFU/ml
same,AVG,Exp#3 B3 Exp (laser treated),19 CFU
same,Laser Effect (+M),"Exp#3 C3, laser Exp / Cont",0.35
same,Meth Effect,Exp#3 C3 Cont (no laser),1.01
same,CFU/ml,Exp#3 C3 Cont (no laser),1.75E+08 CFU/ml
same,AVG,Exp#3 C3 Cont (no laser),58.4 CFU
same,Meth Effect,Exp#3 C3 Exp (laser treated),0.53
same,CFU/ml,Exp#3 C3 Exp (laser treated),6.06E+07 CFU/ml
same,AVG,Exp#3 C3 Exp (laser treated),20.2 CFU
same,Laser Effect (+M),"Exp#3 D3, laser Exp / Cont",0.07
same,Meth Effect,Exp#3 D3 Cont (no laser),1.01
same,CFU/ml,Exp#3 D3 Cont (no laser),1.54E+08 CFU/ml
same,AVG,Exp#3 D3 Cont (no laser),51.2 CFU
same,Meth Effect,Exp#3 D3 Exp (laser treated),0.39
same,CFU/ml,Exp#3 D3 Exp (laser treated),1.08E+07 CFU/ml
same,AVG,Exp#3 D3 Exp (laser treated),3.6 CFU
same,Laser Effect (+M),"Exp#3 E3, laser Exp / Cont",0.47
same,Meth Effect,Exp#3 E3 Cont (no laser),0.92
same,CFU/ml,Exp#3 E3 Cont (no laser),1.52E+08 CFU/ml
same,AVG,Exp#3 E3 Cont (no laser),50.6 CFU
same,Meth Effect,Exp#3 E3 Exp (laser treated),0.44
same,CFU/ml,Exp#3 E3 Exp (laser treated),7.08E+07 CFU/ml
same,AVG,Exp#3 E3 Exp (laser treated),23.6 CFU
same,CFU,Exp#3 E3 Exp (laser treated),15 CFU and 24 CFU and 26 CFU and 27 CFU
same,Laser Effect (+M),"Exp#3 F3, laser Exp / Cont",0.18
same,Meth Effect,Exp#3 F3 Cont (no laser),0.73
same,CFU/ml,Exp#3 F3 Cont (no laser),1.60E+08 CFU/ml
same,AVG,Exp#3 F3 Cont (no laser),53.2 CFU
same,Meth Effect,Exp#3 F3 Exp (laser treated),0.35
same,CFU/ml,Exp#3 F3 Exp (laser treated),2.94E+07 CFU/ml
same,AVG,Exp#3 F3 Exp (laser treated),9.8 CFU
same,Laser Effect (+M),"Exp#3 G3, laser Exp / Cont",0.12
same,Meth Effect,Exp#3 G3 Cont (no laser),1.17
same,CFU/ml,Exp#3 G3 Cont (no laser),2.03E+08 CFU/ml
same,AVG,Exp#3 G3 Cont (no laser),67.6 CFU
same,Meth Effect,Exp#3 G3 Exp (laser treated),0.37
same,CFU/ml,Exp#3 G3 Exp (laser treated),2.52E+07 CFU/ml
same,AVG,Exp#3 G3 Exp (laser treated),8.4 CFU
same,Laser Effect (+M),"Exp#3 H3, laser Exp / Cont",0.11
same,Meth Effect,Exp#3 H3 Cont (no laser),1.04
same,CFU/ml,Exp#3 H3 Cont (no laser),2.26E+08 CFU/ml
same,AVG,Exp#3 H3 Cont (no laser),75.2 CFU
same,Meth Effect,Exp#3 H3 Exp (laser treated),0.35
same,CFU/ml,Exp#3 H3 Exp (laser treated),2.52E+07 CFU/ml
same,AVG,Exp#3 H3 Exp (laser treated),8.4 CFU
same,synergistic effect of NIMELS with antibiotic in growth inhibition of MRSA colonies,FIG. 17,being potentiated by sub-lethal NIMELS dosimetry
